The values below come from ChEMBL document CHEMBL1149926, “Synthesis of 7-substituted androstenediones by a 1,4-conjugate addition approach” (Bioorg Med Chem Lett, 1995).

The Ki is a measure of affinity in units of concentration, obtained from inhibition or displacement. Read a low Ki as tighter binding.

In this assay the target is T1, Aromatase (Homo sapiens, UniProt P11511).
T1 sequence (P11511 whole entry): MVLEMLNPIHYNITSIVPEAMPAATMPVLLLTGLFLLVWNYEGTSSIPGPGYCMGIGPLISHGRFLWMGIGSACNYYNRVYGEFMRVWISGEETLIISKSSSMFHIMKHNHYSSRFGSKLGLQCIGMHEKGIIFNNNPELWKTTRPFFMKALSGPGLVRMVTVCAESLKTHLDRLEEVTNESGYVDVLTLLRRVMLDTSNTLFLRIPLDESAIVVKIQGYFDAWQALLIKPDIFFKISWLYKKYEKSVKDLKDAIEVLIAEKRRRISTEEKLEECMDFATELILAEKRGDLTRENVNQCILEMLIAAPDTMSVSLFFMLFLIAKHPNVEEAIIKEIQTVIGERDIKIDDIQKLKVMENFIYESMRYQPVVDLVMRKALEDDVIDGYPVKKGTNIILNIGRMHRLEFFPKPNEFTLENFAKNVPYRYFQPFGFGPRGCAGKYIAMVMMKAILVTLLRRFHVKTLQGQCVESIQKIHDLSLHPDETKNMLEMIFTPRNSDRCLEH
Nature of the assay: Inhibition of aromatase cytochrome P450 19A1.
For `C[C@]12CCC(=O)C=C1C[C@@H](Cc1ccccc1)[C@@H]1[C@@H]2CC[C@]2(C)C(=O)CC[C@@H]12`, the Ki is 13.1 nM.
Consider `C[C@]12CCC(=O)C=C1C[C@@H](CCc1ccccc1)[C@@H]1[C@@H]2CC[C@]2(C)C(=O)CC[C@@H]12`, for which the Ki came to 16.5 nM.
With `C[C@]12C=CC(=O)C=C1C[C@@H](Sc1ccc(N)cc1)[C@@H]1[C@@H]2CC[C@]2(C)C(=O)CC[C@@H]12`, the Ki is 10 nM.
